Laboratory results as given in PMC10017790 (Nature Communications, 2023).

How the values were obtained:
PaPPAR = system: T1, PaPPAR; type: biochemical, Petunia axillaris; settings: 2 mM NADPH, 0.1 M Tris-HCl pH 8.0, 1 h
T1 construct: gene PPAR

CaPPAR = type: biochemical, Capsicum annuum; settings: 2 mM NADPH, 0.1 M Tris-HCl pH 8.0, 1 h
AbLS = biological target: T2, AbLS (Atropa belladonna, UniProt A0A3B6XRA5); settings: 1 mM tropine and 1 mM phenyllactate infiltrated; AbUGT1 coexpressed; 24 h
T2 construct: gene LS

SlTRI = biological target: T3, SlTRI (Solanum lycopersicum, UniProt A0A3Q7IM65); type: biochemical; settings: 200 uM NADPH, 0.1 M potassium phosphate pH 6.4, 30 C
T3 construct: gene LOC101265293; CDS cloned from cDNA into pET28a; recombinant His-tagged, Ni-NTA purified; Leu159 printed

O=C(O)C(=O)Cc1ccccc1 = test: purified protein; settings: 2 mM NADPH, 0.1 M Tris-HCl pH 8.0, 1 h

T2 sequence (A0A3B6XRA5 34-476 limits assumed): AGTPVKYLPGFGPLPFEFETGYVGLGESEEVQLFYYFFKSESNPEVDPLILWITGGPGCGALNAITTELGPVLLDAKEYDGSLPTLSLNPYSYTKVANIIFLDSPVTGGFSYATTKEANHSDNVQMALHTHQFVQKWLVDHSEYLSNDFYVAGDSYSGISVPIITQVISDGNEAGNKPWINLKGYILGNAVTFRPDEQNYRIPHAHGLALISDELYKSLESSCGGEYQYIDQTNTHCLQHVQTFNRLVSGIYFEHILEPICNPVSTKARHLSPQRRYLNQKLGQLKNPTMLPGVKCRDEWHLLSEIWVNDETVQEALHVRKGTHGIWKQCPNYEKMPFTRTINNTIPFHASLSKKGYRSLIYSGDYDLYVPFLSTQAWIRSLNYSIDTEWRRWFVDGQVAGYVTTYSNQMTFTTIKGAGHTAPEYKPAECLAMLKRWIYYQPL
T3 sequence (A0A3Q7IM65 9-272): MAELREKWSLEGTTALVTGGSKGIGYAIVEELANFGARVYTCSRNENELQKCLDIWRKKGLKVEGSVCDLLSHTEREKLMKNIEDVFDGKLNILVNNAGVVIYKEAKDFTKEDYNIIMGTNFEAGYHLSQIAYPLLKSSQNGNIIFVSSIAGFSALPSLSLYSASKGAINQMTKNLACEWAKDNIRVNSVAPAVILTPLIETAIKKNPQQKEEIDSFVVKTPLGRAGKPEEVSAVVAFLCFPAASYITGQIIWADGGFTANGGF

Molecule	Km (O=C(O)C(=O)Cc1ccccc1) [µM]	kcat (O=C(O)C(=O)Cc1ccccc1) [s⁻¹]	further results
O=C(O)C(=O)Cc1ccccc1 [phenylpyruvic acid]	–	–	Km (PaPPAR): 2650 ± 374 µM; Km (CaPPAR): 3020 ± 485 µM
CN1[C@@H]2CC[C@H]1C[C@@H](O)C2 [tropine]	–	–	transient expression in N. benthamiana leaves, littorine by UPLC-MS (AbLS): we detected littorine in tobacco leaves expressing DsLS and AbLS
CN1[C@@H]2CC[C@H]1CC(=O)C2 [tropinone]	–	–	Km (SlTRI): TRI from tomato also showed TRI activity
AbPPAR (Atropa belladonna)	2085 ± 461.3	0.0098 ± 0.00074	–
SlPPAR (Solanum lycopersicum)	1380 ± 130	0.03355 ± 0.00253	–
